Assay results: ChEMBL document CHEMBL5038569, “Targeting RECQL5 Functions, by a Small Molecule, Selectively Kills Breast Cancer in Vitro and in Vivo” (J Med Chem, 2021)
Activity calls are given as the source filed them. The rule behind the calls is not given here.

How the values were obtained:
T47D = assay: Inhibition of homologous recombinant repair in RECQL5 knock out human T47D cells assessed as stabilization of RAD51-RECQL5 interaction by measuring increase in RAD51 foci formation at 20 uM measured after 4 to 24 hrs by immunofluorescence microscopic analysis; format: functional, cell-based; settings: time 4-24 hrs
[1] = Chronic toxicity in […] mouse assessed as change in body weight at 100 mg/kg, po administered as single dose via gavage measured for 30 days; format: organism-based; settings: in vivo, 720 h, time 30 day
[2] = Toxicity in nude mouse xenografted with human MCF7 cells assessed as morphological changes in kidney at 50 mg/kg, po administered via oral gavage and measured after 30 days; format: organism-based; settings: in vivo, 720 h, time 30 day
[3] = Cytotoxicity against human MCF-10A cells expressing RECQL5 assessed as cell growth inhibition measured after 72 hrs by MTT assay; format: toxicity, cell-based
MCF7 [4] = assay: Cytotoxicity against human MCF7 cells expressing wild type RECQL5 assessed as cell growth inhibition measured after 72 hrs by MTT assay; format: functional; settings: dose 6-50 µM
MCF7 [5] = assay: Inhibition of homologous recombinant repair in RECQL5 knock out human MCF7 cells assessed as stabilization of RAD51-RECQL5 interaction by measuring increase in RAD51 foci formation at 20 uM measured after 4 to 24 hrs by immunofluorescence microscopic analysis; format: functional, cell-based; settings: time 4-24 hrs
MCF7 [6] = assay: Inhibition of homologous recombinant repair in human MCF7 cells expressing RECQL5 wildtype assessed as stabilization of RAD51-RECQL5 interaction by measuring increase in RAD51 foci formation at 20 uM measured after 4 to 24 hrs by immunofluorescence microscopic analysis; format: functional, cell-based; settings: time 4-24 hrs
[7] = Toxicity in […] mouse assessed as fold change in alkaline phosphatase level at 100 mg/kg, po administered as single dose via gavage measured after 30 days relative to control; format: organism-based; settings: in vivo, 720 h, time 30 day
MCF7 [8] = assay: Antitumor activity against RECQL5 knock out human MCF7 cells xenografted in nude mouse assessed as reduction in tumor growth at 50 mg/kg, po administered as single dose via gavage measured after 30 days; format: functional, organism-based; settings: time 30.0 day
MCF7 [9] = assay: Cytotoxicity against RECQL5 knock out human MCF7 cells assessed as cell growth inhibition measured after 72 hrs by MTT assay; format: functional; settings: dose 6-50 µM
MDA-MB-231 = assay: Cytotoxicity against ER/PR/HER2-negative human MDA-MB-231 cells expressing wild type RECQL5 and p53 mutant assessed as reduction in colony formation measured after 8 to 10 days by clonogenic survival assay; format: functional, cell-based; settings: time 8-10 day
[10] = Inhibition of ds-DNA dependent human RECQL5 ATPase activity measured after 60 mins by luciferin-based multiplate reader method
[11] = Drug concentration in nude mouse serum at 50 mg/kg, po administered alternative days via gavage and measured upto 4 hrs by HPLC analysis; format: ADME, organism-based; settings: read-out: Drug uptake
[12] = Toxicity in nude mouse xenografted with human MCF7 cells assessed as morphological changes in heart at 50 mg/kg, po administered via oral gavage and measured after 30 days; format: organism-based; settings: in vivo, 720 h, time 30 day
MCF7 [13] = assay: Cytotoxicity against human MCF7 cells with shRNA-mediated RECQL1 depletion assessed as reduction in cell viability at 6 to 25 uM measured after 8 to 10 days by clonogenic survival assay; format: functional, cell-based; settings: dose 6-25 µM, time 8-10 day
MCF7 [14] = assay: Cytotoxicity against human MCF7 cells expressing RECQL5-RFP wild type helicase assessed as sensitizing activity by measuring colony survival at 5 to 20 uM measured after 8 to 10 days by clonogenic survival assay; format: functional, cell-based; settings: dose 5-20 µM, time 8-10 day
MCF7 [15] = assay: Induction of apoptosis in human MCF7 cells expressing wild type RECQL5 assessed as increase in sub-G1 cell population measured after 72 hrs by propidium iodide/RNase A staining based flow cytometric analysis; format: functional; settings: dose 2.5-20 µM
MCF7 [16] = assay: Induction of DNA damage in RECQL5 knock out human MCF7 cells assessed as double strand breaks by measuring increase in gamma-H2AX foci formation incubated for 24 hrs by immunofluorescence microscopic analysis; format: functional, cell-based
MCF7 [17] = assay: Induction of DNA damage in RECQL5 knock out human MCF7 cells assessed as double strand breaks by measuring increase in phosphorylation of CHK2 at T68 residue at 20 uM measured up to 24 hrs by Western blot analysis; format: functional, cell-based; settings: time hrs <=24
MCF7 [18] = assay: Induction of DNA damage in RECQL5 knock out human MCF7 cells assessed as double strand breaks by measuring increase in phosphorylation of ATM at S1981 residue at 20 uM measured up to 24 hrs by Western blot analysis; format: functional, cell-based; settings: time hrs <=24
MCF7 [19] = assay: Induction of DNA damage in RECQL5 knock out human MCF7 cells assessed as double strand breaks by measuring increase in phosphorylation of ATR at S428 residue at 20 uM measured up to 24 hrs by Western blot analysis; format: functional, cell-based; settings: time hrs <=24
MCF7 [20] = assay: Effect on NHEJ-mediated double strand break repair in human MCF7 cells expressing wild type RECQL5 assessed as accumulation of DNA-dependent protein kinase on chromatin at 20 uM measured up to 24 hrs by Western blot analysis; format: cell-based; settings: time hrs <=24
MCF7 [21] = assay: Effect on NHEJ-mediated double strand break repair in RECQL5 knock out human MCF7 cells assessed as accumulation of DNA-dependent protein kinase on chromatin at 20 uM measured up to 24 hrs by Western blot analysis; format: cell-based; settings: time hrs <=24
MCF7 [22] = assay: Effect on homologous recombinant repair in human MCF7 cells expressing wild type RECQL5 assessed as accumulation of RAD50 protein on chromatin at 20 uM incubated for 4 to 24 hrs by Western blot analysis; format: functional, cell-based; settings: time 4-24 hrs, TDE = time-dependent effect
MCF7 [23] = assay: Effect on homologous recombinant repair in RECQL5 knock out human MCF7 cells assessed as accumulation of NBS1 protein on chromatin at 20 uM incubated for 4 to 24 hrs by Western blot analysis; format: functional, cell-based; settings: time 4-24 hrs
MCF7 [24] = assay: Stabilization of RECQL5-RAD51 complex in human MCF7 cells expressing wild type RECQL5 assessed as increase in accumulation of nucleus-bound RECQL5 and RAD51 at 20 uM measured after 4 to 24 hrs by Western blot analysis; format: cell-based; settings: time 4-24 hrs
MCF7 [25] = assay: Cytotoxicity against RECQL5 knock out human MCF7 cells expressing […] assessed as reduction in colony formation at 10 uM measured after 8 to 10 days by clonogenic survival assay; format: functional, cell-based; settings: time 8-10 day
MCF7 [26] = assay: Induction of cell sensitization to cisplatin in human MCF-7 cells assessed as reduction in colony formation at 5 uM measured after 8 to 10 days by clonogenic survival assay; format: functional, cell-based; settings: time 8-10 day
MCF7 [27] = assay: Induction of cell sensitization to cisplatin in cisplatin-resistant human MCF-7 cells assessed as reduction in colony formation at 5 uM measured after 8 to 10 days by clonogenic survival assay; format: functional, cell-based; settings: time 8-10 day
MCF7 [28] = assay: Induction of mitotic catastrophe phenotype in human MCF7 cells assessed as micronucleus formation at 20 uM pretreated with cisplatin for 8 hrs followed by compound addition and measured after 24 hrs by immunofluorescence microscopic analysis; format: functional, cell-based
MCF7 [29] = assay: Induction of mitotic catastrophe phenotype in human MCF7 cells assessed as fused nucleus at 20 uM pretreated with cisplatin for 8 hrs followed by compound addition and measured after 24 hrs by immunofluorescence microscopic analysis; format: functional, cell-based
MCF7 [30] = assay: Induction of mitotic catastrophe phenotype in human cisplatin-resistant MCF7 cells assessed as fused nucleus at 20 uM pretreated with cisplatin for 8 hrs followed by compound addition and measured after 24 hrs by immunofluorescence microscopic analysis; format: functional, cell-based

In the case of `O=C(Nc1cc(C(F)(F)F)cc(C(F)(F)F)c1)N[C@@H](c1ccccc1)c1nnc(SCc2ccccc2)o1`, the inhibition (T47D) is reported as “inactive”, the Activity [1] is reported as “Non-Toxic” and the Activity [2] is reported as “Non-Toxic”. The IC20 at 72 h [3] was 33.4 µM, the IC20 (MCF7 [4]) was 8.2 µM and the inhibition (MCF7 [5]) was “inactive”. The inhibition (MCF7 [6]) was “Active”, the “fold change (FC)” value [7] was 0.97 and the Activity (MCF7 [8]) was “inactive”. The IC20 (MCF7 [9]) was 22.3 µM, the Activity (MDA-MB-231) was “Active” and the IC50 [10] was 23.9 µM. For the same compound, the concentration at 4 h [11] was 14.8 µM, the Activity [12] was “Non-Toxic” and the Activity (MCF7 [13]) was “Active”. For the same compound, the Activity (MCF7 [14]) was “Active”, the Activity (MCF7 [15]) was “Dose-Dependent Effect” and the Activity (MCF7 [16]) was “inactive”. The Activity (MCF7 [17]) was “inactive”, the Activity (MCF7 [18]) was “inactive” and the Activity (MCF7 [19]) was “inactive”. For the same compound, the Activity (MCF7 [20]) was “inactive”, the Activity (MCF7 [21]) was “inactive” and the Activity (MCF7 [22]) was “Tde”. For the same compound, the Activity (MCF7 [23]) was “inactive”, the Activity (MCF7 [24]) was “inactive” and the Activity (MCF7 [25]) was “inactive”. The Activity (MCF7 [26]) was “Active”, the Activity (MCF7 [27]) was “Active” and the Activity (MCF7 [28]) was “Active”. The Activity (MCF7 [29]) was “Active” and the Activity (MCF7 [30]) was “Active”.
